In patent US20230279002A1, “Polymorphs of Crystalline Forms of 3,10-dimethoxy-5,8,13,13a-tetrahydro-6H-isoquinolino[3,2-a]isoquinolin-9-yl 3-fluorobenzenesulfonate and Salts Thereof” (CVI Pharmaceuticals Limited, priority 2020, published 2023):

What was measured:
Type in all cases: physicochemical
[1] = Solubility in SGF, FaSSIF, FeSSIF, 0.1M HCl, pH 4.5 and pH 6.8 aqueous at 25° C. (HPLC); conditions: for Solubility conc.(mg/ml): solubility of salts transformed to freebase; for Final pH: solubility test
Method: Solubility: Excess drug substance was equilibrated with SGF (Simulated Gastric Fluid), FaSSIF (Simulated Small Intestinal Fluid under Fasted state), FeSSIF (Simulated Small Intestinal Fluid under Fed state), 0.1M HCl, pH 4.5 aqueous, and pH 6.8 aqueous at 25° C. After stirring for 20˜24 h, each sample was filtered, diluted appropriately and analyzed by HPLC. The experiment was terminated once a solubility target of 5 mg/mL was reached.

[2] = DVS (Dynamic Vapor Sorption) moisture sorption/desorption, hygroscopicity classification
Method: DVS (Dynamic Vapor Sorption): Around 10-20 mg of samples were used to test its moisture sorption/desorption profiles at 25° C. under 0%˜95%˜0% relative humidity (RH) cycle using dm/dt: 0.01%/min equilibrium and a measurement step of 5% RH.
Hygroscopicity Classification: Typical %-moisture gain as a function of increased RH was determined by DVS. Samples went through a dynamic test isothermally at 25° C. The test was divided into 2 processes, one was absorption process, the other was desorption process. RH ranged from 0% to 95% with 5% RH for each step, and when dm/dt<=0.01%, it was assumed the water sorption/desorption equilibrium is reached.

[3] = Solid stability at 40° C./0% RH (closed) and 40° C./75% RH (open), HPLC; conditions: for 0 day % remaining / 7 day % remaining / 21 day % remaining: solid
Method: Solid stability: 5 mg of 2a was weighed into scintillation vials sealed properly and stored at 40° C./0% RH(closed), 40° C./75% RH(open) under dark conditions to avoid the effect of light on stability. Samples were collected at day 0, 5 and 10 and analyzed by HPLC.
Solid stability: 5 mg of compound was weighed into vials sealed properly and stored at 40° C./0% RH (closed), 40° C./75% RH (open) under dark conditions to avoid the effect of light. Samples were analyzed by HPLC at days 0, 7, and 21.
Solid stability of compound 1a: 5 mg compound were accurately weighed into scintillation vials sealed properly and stored at 40° C./0% RH(closed), 40° C./75% RH(open) under dark condition to avoid the effect of light on stability. Samples should be collected at day 0, 5 and 10 days and analyzed by HPLC.

[4] = Solution stability in 0.1 N HCl, pH 4.5 buffer and pH 6.8 buffer at 25° C. and 37° C., HPLC
Method: Solution stability: A stock solution of compound (1.0 mg/mL) in MeOH was diluted with 0.1 N HCl, pH 4.5 buffer (acetate) and pH 6.8 buffer to reach constant ionic strength of 0.15 M and the same final concentration (50 μg/mL, 40% MeOH).
A stock solution of 1b and 3b (1.0 mg/mL) in MeOH was diluted with pH 6.8 buffer to reach constant ionic strength of 0.15M and the same final concentration (25 μg/mL, 40% […]).
The solutions were stored at 25° C. and 37° C.

COc1ccc2c(c1)CCN1Cc3c(ccc(OC)c3OS(=O)(=O)c3cccc(F)c3)C[C@@H]21 [Compound 3b]
Solubility conc.(mg/ml) ([1]; 0.1N HCL): 0.261 mg/mL | Solubility conc.(mg/ml) ([1]; FaSSIF): 0.009 mg/mL | Solubility conc.(mg/ml) ([1]; FeSSIF): 0.010 mg/mL | Solubility conc.(mg/ml) ([1]; SGF): 1.828 mg/mL | Solubility conc.(mg/ml) ([1]; Water): 0.145 mg/mL | Solubility conc.(mg/ml) ([1]; pH 4.5 Acetate Buffer (USP)): 0.012 mg/mL | Solubility conc.(mg/ml) ([1]; pH 6.8 Phosphate Buffer (USP)): 0.014 mg/mL | Final pH ([1]; 0.1N HCL): 1.56 | Final pH ([1]; FaSSIF): 6.04 | Final pH ([1]; FeSSIF): 4.87 | Final pH ([1]; SGF): 1.55 | Final pH ([1]; Water): 2.71 | Final pH ([1]; pH 4.5 Acetate Buffer (USP)): 4.42 | Final pH ([1]; pH 6.8 Phosphate Buffer (USP)): 6.64 | Hygroscopicity classification by DVS ([2]; 25 °C): hygroscopic | Change In Mass (%) - ref, Desorption ([2]; Cycle 1, target RH 0.0%): 0.05% | Change In Mass (%) - ref, Sorption ([2]; Cycle 1, target RH 0.0%): 0.00% | Change In Mass (%) - ref, Desorption ([2]; Cycle 1, target RH 5.0%): 0.26% | Change In Mass (%) - ref, Hysteresis ([2]; Cycle 1, target RH 5.0%): 0.23% | Change In Mass (%) - ref, Sorption ([2]; Cycle 1, target RH 5.0%): 0.03% | Change In Mass (%) - ref, Desorption ([2]; Cycle 1, target RH 10.0%): 0.46% | Change In Mass (%) - ref, Hysteresis ([2]; Cycle 1, target RH 10.0%): 0.18% | Change In Mass (%) - ref, Sorption ([2]; Cycle 1, target RH 10.0%): 0.28% | Change In Mass (%) - ref, Desorption ([2]; Cycle 1, target RH 15.0%): 0.61% | Change In Mass (%) - ref, Hysteresis ([2]; Cycle 1, target RH 15.0%): 0.29% | Change In Mass (%) - ref, Sorption ([2]; Cycle 1, target RH 15.0%): 0.32% | Change In Mass (%) - ref, Desorption ([2]; Cycle 1, target RH 20.0%): 4.13% | Change In Mass (%) - ref, Hysteresis ([2]; Cycle 1, target RH 20.0%): 3.79% | Change In Mass (%) - ref, Sorption ([2]; Cycle 1, target RH 20.0%): 0.34% | Change In Mass (%) - ref, Desorption ([2]; Cycle 1, target RH 25.0%): 8.89% | Change In Mass (%) - ref, Hysteresis ([2]; Cycle 1, target RH 25.0%): 8.50% | Change In Mass (%) - ref, Sorption ([2]; Cycle 1, target RH 25.0%): 0.39% | Change In Mass (%) - ref, Desorption ([2]; Cycle 1, target RH 30.0%): 9.08% | Change In Mass (%) - ref, Hysteresis ([2]; Cycle 1, target RH 30.0%): 1.62% | Change In Mass (%) - ref, Sorption ([2]; Cycle 1, target RH 30.0%): 7.46% | Change In Mass (%) - ref, Desorption ([2]; Cycle 1, target RH 35.0%): 9.14% | Change In Mass (%) - ref, Hysteresis ([2]; Cycle 1, target RH 35.0%): 0.21% | Change In Mass (%) - ref, Sorption ([2]; Cycle 1, target RH 35.0%): 8.93% | Change In Mass (%) - ref, Desorption ([2]; Cycle 1, target RH 40.0%): 9.18% | Change In Mass (%) - ref, Hysteresis ([2]; Cycle 1, target RH 40.0%): 0.13% | Change In Mass (%) - ref, Sorption ([2]; Cycle 1, target RH 40.0%): 9.06% | Change In Mass (%) - ref, Desorption ([2]; Cycle 1, target RH 45.0%): 9.26% | Change In Mass (%) - ref, Hysteresis ([2]; Cycle 1, target RH 45.0%): 0.16% | Change In Mass (%) - ref, Sorption ([2]; Cycle 1, target RH 45.0%): 9.10% | Change In Mass (%) - ref, Desorption ([2]; Cycle 1, target RH 50.0%): 10.73% | Change In Mass (%) - ref, Hysteresis ([2]; Cycle 1, target RH 50.0%): 1.59% | Change In Mass (%) - ref, Sorption ([2]; Cycle 1, target RH 50.0%): 9.14% | Change In Mass (%) - ref, Desorption ([2]; Cycle 1, target RH 55.0%): 10.99% | Change In Mass (%) - ref, Hysteresis ([2]; Cycle 1, target RH 55.0%): 1.77% | Change In Mass (%) - ref, Sorption ([2]; Cycle 1, target RH 55.0%): 9.22% | Change In Mass (%) - ref, Desorption ([2]; Cycle 1, target RH 60.0%): 11.23% | Change In Mass (%) - ref, Hysteresis ([2]; Cycle 1, target RH 60.0%): 1.82% | Change In Mass (%) - ref, Sorption ([2]; Cycle 1, target RH 60.0%): 9.41% | Change In Mass (%) - ref, Desorption ([2]; Cycle 1, target RH 65.0%): 11.50% | Change In Mass (%) - ref, Hysteresis ([2]; Cycle 1, target RH 65.0%): 0.36% | Change In Mass (%) - ref, Sorption ([2]; Cycle 1, target RH 65.0%): 11.14% | Change In Mass (%) - ref, Desorption ([2]; Cycle 1, target RH 70.0%): 11.84% | Change In Mass (%) - ref, Hysteresis ([2]; Cycle 1, target RH 70.0%): 0.04% | Change In Mass (%) - ref, Sorption ([2]; Cycle 1, target RH 70.0%): 11.79% | Change In Mass (%) - ref, Desorption ([2]; Cycle 1, target RH 75.0%): 12.27% | Change In Mass (%) - ref, Hysteresis ([2]; Cycle 1, target RH 75.0%): 0.04% | Change In Mass (%) - ref, Sorption ([2]; Cycle 1, target RH 75.0%): 12.23% | Change In Mass (%) - ref, Desorption ([2]; Cycle 1, target RH 80.0%): 12.85% | Change In Mass (%) - ref, Hysteresis ([2]; Cycle 1, target RH 80.0%): 0.05% | Change In Mass (%) - ref, Sorption ([2]; Cycle 1, target RH 80.0%): 12.79% | Change In Mass (%) - ref, Desorption ([2]; Cycle 1, target RH 85.0%): 13.71% | Change In Mass (%) - ref, Hysteresis ([2]; Cycle 1, target RH 85.0%): 0.08% | Change In Mass (%) - ref, Sorption ([2]; Cycle 1, target RH 85.0%): 13.64% | Change In Mass (%) - ref, Desorption ([2]; Cycle 1, target RH 90.0%): 15.23% | Change In Mass (%) - ref, Hysteresis ([2]; Cycle 1, target RH 90.0%): 0.15% | Change In Mass (%) - ref, Sorption ([2]; Cycle 1, target RH 90.0%): 15.08% | Change In Mass (%) - ref, Desorption ([2]; Cycle 1, target RH 95.0%): 17.97% | Change In Mass (%) - ref, Sorption ([2]; Cycle 1, target RH 95.0%): 17.97% | moisture picked up (DVS) ([2]; at 80% RH, 25 °C): ~13% | moisture picked up (DVS) ([2]; at 95% RH, 25 °C): ~18% | Solid-state stability (HPLC) ([3]; 40° C./0% RH (closed) and 40° C./75% RH (open), dark, up to 3 weeks): substantially stable | 0 day % remaining ([3]; 40° C. (0% RH, closed)): 100.0% | 7 day % remaining ([3]; 40° C. (0% RH, closed)): 99.1% | 21 day % remaining ([3]; 40° C. (0% RH, closed)): 99.2% | 0 day % remaining ([3]; 40° C./75% RH (open)): 100.0% | 7 day % remaining ([3]; 40° C./75% RH (open)): 100.3% | 21 day % remaining ([3]; 40° C./75% RH (open)): 99.8% | Remaining % ([4]; 25° C., 0.1N HCL, 0 h, 50 μg/mL, 40% MeOH): 100.00% | Remaining % ([4]; 25° C., 0.1N HCL, 3 h, 50 μg/mL, 40% MeOH): 100.31% | Remaining % ([4]; 25° C., 0.1N HCL, 24 h, 50 μg/mL, 40% MeOH): 100.62% | Solution stability ([4]; 25° C., 24 h, 0.1 N HCl, pH 4.5 buffer and pH 6.8 buffer): stable | Remaining % ([4]; 25° C., pH 4.5, 0 h, 50 μg/mL, 40% MeOH): 100.00% | Remaining % ([4]; 25° C., pH 4.5, 3 h, 50 μg/mL, 40% MeOH): 100.00% | Remaining % ([4]; 25° C., pH 4.5, 24 h, 50 μg/mL, 40% MeOH): 100.08% | Remaining % ([4]; 25° C., pH 6.8*, 0 h, final conc. 25 μg/mL with 40% DMSO): 100.00% | Remaining % ([4]; 25° C., pH 6.8*, 3 h, final conc. 25 μg/mL with 40% DMSO): 99.64% | Remaining % ([4]; 25° C., pH 6.8*, 24 h, final conc. 25 μg/mL with 40% DMSO): 99.64% | Remaining % ([4]; 37° C., 0.1N HCL, 0 h, 50 μg/mL, 40% MeOH): 100.00% | Remaining % ([4]; 37° C., 0.1N HCL, 3 h, 50 μg/mL, 40% MeOH): 99.92% | Remaining % ([4]; 37° C., 0.1N HCL, 24 h, 50 μg/mL, 40% MeOH): 100.92% | Solution stability ([4]; 37° C., 24 h, 0.1N HCl, pH 4.5 buffer): stable | Solution stability ([4]; 37° C., 24 h, pH 6.8 buffer): decomposed | Remaining % ([4]; 37° C., pH 4.5, 0 h, 50 μg/mL, 40% MeOH): 100.00% | Remaining % ([4]; 37° C., pH 4.5, 3 h, 50 μg/mL, 40% MeOH): 100.39% | Remaining % ([4]; 37° C., pH 4.5, 24 h, 50 μg/mL, 40% MeOH): 100.47% | Remaining % ([4]; 37° C., pH 6.8*, 0 h, final conc. 25 μg/mL with 40% DMSO): 100.00% | Remaining % ([4]; 37° C., pH 6.8*, 3 h, final conc. 25 μg/mL with 40% DMSO): 99.22% | Remaining % ([4]; 37° C., pH 6.8*, 24 h, final conc. 25 μg/mL with 40% DMSO): 85.89%
